The test system of assay [1] is HSV-1. The assay is described as follows: HSV Antiviral (ELISA) Assay. In kind it is cell-based, herpes simplex virus type 1. Particulars: for IC50: Human alphaherpesvirus 1, Vero, read-out: IC50 Ug/ml HSV. The method in brief: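 Replication measured as glycoprotein D signal in fixed cells: anti-gD antibody plus β-galactosidase-linked secondary, fluorogenic substrate read at 365/450 nm. Vero cells (2% FBS DMEM) received compound 30 min pre-infection, HSV-1 MOI 0.006, ~24 h incubation; IC50 relative to no-compound fluorescence.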
(An ELISA detects its analyte on a solid surface through an enzyme-linked reagent.)

Assay [2] has as its system VZV strain Ellen. The assay is described as follows: VZV Antiviral (ELISA) Assay. In kind it is cell-based, varicella-zoster virus. The settings on record: human foreskin fibroblast cells; for IC50 / inhibition at 10 µg/mL: Human alphaherpesvirus 3, Fibroblast; for IC50: read-out: IC50 Ug/ml VZV; for inhibition at 10 µg/mL: read-out: % inhibition 10 ug/ml VZV, 10 ug/ml. The method in brief: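 Cell-based ELISA: infected/uninfected HFF mix (VZV Ellen, MOI <0.1) exposed to compound in DMEM/2% FBS for 3 days at 37° C. Anti-gpII monoclonal plus β-galactosidase-linked secondary, detected as 4-methylumbelliferone fluorescence; IC50 derived by comparing fluorescence with versus without compound.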

Assay [3] has as its system HCMV wild-type. The assay is described as follows: HCMV yield assay. Particulars: for IC50: Human betaherpesvirus 5, Fibroblast, read-out: IC50 Ug/ml HCMV. The format is cell-based, human cytomegalovirus. The method in brief:
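Value is the compound amount cutting virus yield titer by 50% (IC50) or 90% (IC90). Human foreskin fibroblasts infected with wild-type HCMV (MOI typically 0.2) under varying compound; progeny harvested day 3, titered compound-free on fibroblasts, plaques scored at 2 weeks.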

Results on 24 compounds are retold here after patent US6335350B1, “Acetamide and substituted acetamide-containing thiourea inhibitors of herpes viruses” (American Home Products Corporation, priority 1998, dated 2002).

≈ marks a conversion by molar mass, not a printed value. Read-outs that look alike come from different tables or passages of the source.

Regarding `CC(=O)Nc1ccc(NC(=S)Nc2ccccc2)cc1` [Example 814, N-[4-(3-Phenyl-thioureido)-phenyl]-acetamide], the IC50 in assay [1], in assay [2] and in assay [3] was > 10 µg/mL in each case. Also, the inhibition at 10 µg/mL in assay [2] is 15%.
Consider `CCCCCC(=O)Nc1ccc(NC(=S)Nc2cc(Br)c(OC)cc2OC)cc1` [Example 826, Hexanoic acid {4-[3-(5-bromo-2,4-dimethoxy-phenyl)-thioureido]-phenyl}-amide], for which the IC50 in assay [1] (Vero cells, HSV-1) is 3 µg/mL (≈ 6.24 µM); in assay [2] it was > 10 µg/mL; in assay [3] (human foreskin fibroblasts), > 10 µg/mL. In addition, the inhibition at 10 µg/mL in assay [2] worked out at 30%.
Regarding `COc1cc(OC)c(NC(=S)Nc2ccc(NC(C)=O)c(Cl)c2)cc1Cl` [Example 275, N-{2-Chloro-4-[3-(5-chloro-2,4-dimethoxy-phenyl)-thioureido]-phenyl}-acetamide], the IC50 in assay [1] (Vero cells, HSV-1) is 10 µg/mL (≈ 24.1 µM); in assay [2] it was > 10 µg/mL; in assay [3] (human foreskin fibroblasts), > 10 µg/mL. For the same compound, the inhibition at 10 µg/mL in assay [2] amounted to 32%.
Turning to `CC(=O)Nc1ccc(NC(=S)Nc2cc(C)c(O)c(Cl)c2)cc1` [Example 128, N-{4-[3-(3-Chloro-4-hydroxy-5-methyl-phenyl)-thioureido]-phenyl}-acetamide], the IC50 in assay [1] (Vero cells, HSV-1) is 15 µg/mL (≈ 42.9 µM); in assay [2], > 10 µg/mL; in assay [3] (human foreskin fibroblasts), 15 µg/mL (≈ 42.9 µM). In assay [2], the inhibition at 10 µg/mL worked out at 35%.
On to `CC(=O)Nc1ccc(NC(=S)Nc2ccc(Oc3ccc(Cl)cc3S(=O)(=O)O)c(Cl)c2)cc1` [Example 262, 2-{4-[3-(4-Acetylamino-phenyl)-thioureido]-2-chloro-phenoxy}-5-chloro-benzenesulfonic acid], for which the IC50 in assay [1] (Vero cells, HSV-1) was > 50 µg/mL; in assay [2], > 10 µg/mL; in assay [3] (human foreskin fibroblasts), > 50 µg/mL. Besides, the inhibition at 10 µg/mL in assay [2] was determined as 15%.
As for `CC(=O)Nc1ccc(NC(=S)Nc2cc(Cl)ccc2C)cc1` [Example 890, N-{4-[3-(5-Chloro-2-methyl-phenyl)-thioureido]-phenyl}-acetamide], the IC50 in assay [1] (Vero cells, HSV-1) is 20 µg/mL (≈ 59.9 µM); in assay [2] it was > 10 µg/mL; in assay [3] (human foreskin fibroblasts), 35 µg/mL (≈ 105 µM). The inhibition at 10 µg/mL in assay [2] is 20%.
As for `CC(=O)Nc1ccc(NC(=S)Nc2ccc(N(C)CCCN(C)C)c(Cl)c2)cc1` [Example 298, N-[4-(3-{3-Chloro-4-[(3-dimethylamino-propyl)-methyl-amino]-phenyl}-thioureido)-phenyl]-acetamide], the IC50 was > 50 µg/mL in assay [1] (Vero cells, HSV-1); > 10 µg/mL in assay [2]; 15 µg/mL (≈ 34.6 µM) in assay [3] (human foreskin fibroblasts). Besides, the inhibition at 10 µg/mL in assay [2] was determined as 1%.
The like results for `COc1c(Br)cc(NC(=S)Nc2ccc(NC(C)=O)cc2)c(OC)c1Br` [Example 894, N-{4-[3-(3,5-Dibromo-2,4-dimethoxy-phenyl)-thioureido]-phenyl}-acetamide] were, in that order, 12 µg/mL (≈ 23.8 µM), > 10 µg/mL, 7 µg/mL (≈ 13.9 µM) and 56%.
The like results for `CC(=O)Nc1ccc(NC(=S)Nc2ccc(NS(C)(=O)=O)c(Cl)c2)cc1` [Example 369, N-{4-[3-(3-Chloro-4-methanesulfonylamino-phenyl)-thioureido]-phenyl}-acetamide] were, in that order, > 10 µg/mL, > 10 µg/mL, > 10 µg/mL and 0%.
The like results for `COc1cc(N(C)C)c(NC(=S)Nc2ccc(NC(C)=O)cc2)cc1Cl` [Example 227, N-{4-[3-(5-Chloro-2-dimethylamino-4-methoxy-phenyl)-thioureido]-phenyl}-acetamide] were, in that order, > 50 µg/mL, > 10 µg/mL, > 50 µg/mL and 32%.
On to `COc1cc(C)c(Cl)cc1NC(=S)Nc1ccc(NC(C)=O)cc1` [Example 199, N-{4-[3-(5-Chloro-2-methoxy-4-methyl-phenyl)-thioureido]-phenyl}-acetamide], for which the IC50 was 1.2 µg/mL (≈ 3.3 µM) in assay [1] (Vero cells, HSV-1); > 15 µg/mL in assay [2]; > 10 µg/mL in assay [3] (human foreskin fibroblasts). Moreover, in assay [2], the inhibition at 10 µg/mL was 60%.
The corresponding values for `COc1cc(OC)c(NC(=S)Nc2ccc(NC(C)=O)c(C)c2)cc1Cl` [Example 309, N-{4-[3-(5-Chloro-2,4-dimethoxy-phenyl)-thioureido]-2-methyl-phenyl}-acetamide] are 8 µg/mL (≈ 20.3 µM), > 10 µg/mL, 25 µg/mL (≈ 63.5 µM) and 22%.
The like results for `CCCN(CCC)c1ccc(NC(=S)Nc2ccc(NC(C)=O)cc2)cc1Cl` [Example 272, N-{4-[3-(3-Chloro-4-dipropylamino-phenyl)-thioureido]-phenyl}-acetamide] were, in that order, > 50 µg/mL, > 10 µg/mL, > 10 µg/mL and 50%.
The like results for `C=Cc1ccc(NC(=S)Nc2ccc(NC(C)=O)cc2)cc1Cl` [Example 377, N-{4-[3-(3-Chloro-4-vinyl-phenyl)-thioureido]-phenyl}-acetamide] were, in that order, 3 µg/mL (≈ 8.67 µM), > 10 µg/mL, 0.8 µg/mL (≈ 2.31 µM) and 28%.
On to `COc1cc(OCC#N)c(Cl)cc1NC(=S)Nc1ccc(NC(C)=O)cc1` [Example 212, N-(4-{3-[5-Chloro-2-methoxy-4-(2-nitrilo-ethoxy)-phenyl]-thioureido}-phenyl)-acetamide], for which the IC50 in assay [1] (Vero cells, HSV-1) was > 50 µg/mL; in assay [2], > 10 µg/mL; in assay [3] (human foreskin fibroblasts) it was 20 µg/mL (≈ 49.4 µM). In assay [2], the inhibition at 10 µg/mL was found to be 23%.
Regarding “N-{4-[3-(5-Chloro-2,4-dimethoxy-phenyl)-thioureido]-3-methoxy-phenyl}-acetamide [Example 388]”, the “IC50 Ug/ml HSV” value in assay [1] (Vero cells, HSV-1) is on record as 0.6 Ug/ml. The “% inhibition 10 ug/ml VZV” value in assay [2] (10 ug/ml) is recorded as 52%. In addition, the “IC50 Ug/ml VZV” value in assay [2] is listed as >10 Ug/ml. In assay [3] (human foreskin fibroblasts), the “IC50 Ug/ml HCMV” value is listed as >10 Ug/ml.
As to `COc1c(I)cc(NC(=S)Nc2ccc(NC(C)=O)cc2)c(OC)c1I` [Example 893, N-{4-[3-(3,5-Diiodo-2,4-dimethoxy-phenyl)-thioureido]-phenyl}-acetamide], the IC50 came out at 20 µg/mL (≈ 33.5 µM) in assay [1] (Vero cells, HSV-1); 2.5 µg/mL (≈ 4.19 µM) in assay [2]; 7 µg/mL (≈ 11.7 µM) in assay [3] (human foreskin fibroblasts). Besides, in assay [2], the inhibition at 10 µg/mL stood at 76%.
Consider `COc1cc(OC)c(NC(=S)Nc2cc(OC)c(NC(C)=O)cc2OC)cc1Cl` [Example 261, N-{4-[3-(5-Chloro-2,4-dimethoxy-phenyl)-thioureido]-2,5-dimethoxy-phenyl}-acetamide], for which the IC50 in assay [1] (Vero cells, HSV-1) was > 10 µg/mL; in assay [2] it was > 10 µg/mL; in assay [3] (human foreskin fibroblasts), > 10 µg/mL. Moreover, the inhibition at 10 µg/mL in assay [2] was 1%.
Take `COc1cc(O)c(Cl)cc1NC(=S)Nc1ccc(NC(C)=O)cc1` [Example 223, N-{4-[3-(5-Chloro-4-hydroxy-2-methoxy-phenyl)-thioureido]-phenyl}-acetamide]: the IC50 was 14 µg/mL (≈ 38.3 µM) in assay [1] (Vero cells, HSV-1); > 10 µg/mL in assay [2]; > 50 µg/mL in assay [3] (human foreskin fibroblasts). Moreover, the inhibition at 10 µg/mL in assay [2] worked out at 24%.
The corresponding values for `CC(=O)Nc1ccc(NC(=S)Nc2ccc(NC(=O)CN3CCOCC3)c(Cl)c2)cc1` [Example 366, N-{4-[3-(4-Acetylamino-phenyl)-thioureido]-2-chloro-phenyl}-2-morpholin-4-yl-acetamide] are > 10 µg/mL, > 10 µg/mL, > 10 µg/mL and 16%.
As for `COc1cc(OCC(N)=O)c(Cl)cc1NC(=S)Nc1ccc(NC(C)=O)cc1` [Example 838, 2-{4-[3-(4-Acetylamino-phenyl)-thioureido]-2-chloro-5-methoxy-phenoxy}-acetamide], the IC50 in assay [1] (Vero cells, HSV-1) was > 50 µg/mL; in assay [2] it was > 10 µg/mL; in assay [3] (human foreskin fibroblasts), > 10 µg/mL. Besides, the inhibition at 10 µg/mL in assay [2] came to 20%.
Consider `COc1cc(OC)c(NC(=S)Nc2ccc(NC(C)=O)c(C#N)c2)cc1Cl` [Example 259, N-{4-[3-(5-Chloro-2,4-dimethoxy-phenyl)-thioureido]-2-cyano-phenyl}-acetamide], for which the IC50 was > 50 µg/mL in assay [1] (Vero cells, HSV-1); > 10 µg/mL in assay [2]; > 50 µg/mL in assay [3] (human foreskin fibroblasts). The inhibition at 10 µg/mL in assay [2] came to 28%.
With `CCOC(=O)COc1c(Cl)cc(NC(=S)Nc2ccc(NC(C)=O)cc2)cc1Cl` [Example 884, {4-[3-(4-Acetylamino-phenyl)-thioureido]-2,6-dichloro-phenoxy}-acetic acid ethyl ester], the IC50 in assay [1] (Vero cells, HSV-1) is > 50 µg/mL; in assay [2], > 10 µg/mL; in assay [3] (human foreskin fibroblasts) it was > 10 µg/mL. The inhibition at 10 µg/mL in assay [2] was found to be 21%.
As for `CC(=O)Nc1ccc(NC(=S)Nc2ccc(N3CCCCC3)c(Cl)c2)cc1` [Example 239, N-{4-[3-(3-Chloro-4-piperidin-1-yl-phenyl)-thioureido]-phenyl}-acetamide], the IC50 in assay [1] (Vero cells, HSV-1) was 25 µg/mL (≈ 62 µM); in assay [2], > 10 µg/mL; in assay [3] (human foreskin fibroblasts), > 10 µg/mL. In addition, in assay [2], the inhibition at 10 µg/mL worked out at 33%.
